The target of one test is GCN2 kinase (Homo sapiens, UniProt Q9P2K8). Nature of the test: GCN2 enzyme inhibition assay (Transcreener ADP2 fluorescence polarization). Format: biochemical. The following applies: 280 μM ATP. The gist of the method:
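Run at 25 °C in 25 mM Tris-HCl pH 7.5, 50 mM NaCl, 10 mM MgCl2, 1 mM DTT with 4 nM GCN2, 280 μM ATP and 200 μM (RS)7 peptide; compound (0–8 μM final) preincubated 10 min, reaction 1 h. ADP read by antibody/tracer FP; IC50 and Ki(app) from tight-binding fit.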
On the technique in general: Polarisation of emitted light reports the rotation of a fluorescent probe.

The target in test [1] is intracellular GCN2 (phosphorylation of the GCN2 substrate eIF2α) (Homo sapiens, UniProt Q9P2K8). The test can be described thus: GCN2 cellular inhibition assay (AlphaScreen SureFire P-eIF2α Ser51, borrelidin-treated U2OS cells). Format: cell-based. The gist of the method: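 Read-out: AlphaScreen SureFire phospho-eIF2α (Ser51) signal in U2OS lysates. Cells get 4-fold compound dilutions (top 40 μM final) plus 10 μM borrelidin, 1 h, 37 °C. Percent inhibition is relative to borrelidin-alone controls.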
(In general: In Alpha technology, singlet oxygen from a donor bead excites a nearby acceptor bead.)

The mark [2] stands for this setting: compounds of Formula III, 4 nM GCN2 kinase.
Setting [3] is: compounds of Formula III, U2OS cells, 10 μM borrelidin, 1 h, read-out: GCN2 Biomarker (IC50).
Where [4] appears, read: Enzyme activity for compounds of Formula IV, Ki(app), 25° C.
[5] abbreviates: compounds of Formula IV, biomarker assay, phosphorylated eIF2α Ser51 in borrelidin-treated U2OS cells.

Where two headings read alike, the source gives them in different places.

Sequence of intracellular GCN2 (phosphorylation of the GCN2 substrate eIF2α) (Q9P2K8 whole entry): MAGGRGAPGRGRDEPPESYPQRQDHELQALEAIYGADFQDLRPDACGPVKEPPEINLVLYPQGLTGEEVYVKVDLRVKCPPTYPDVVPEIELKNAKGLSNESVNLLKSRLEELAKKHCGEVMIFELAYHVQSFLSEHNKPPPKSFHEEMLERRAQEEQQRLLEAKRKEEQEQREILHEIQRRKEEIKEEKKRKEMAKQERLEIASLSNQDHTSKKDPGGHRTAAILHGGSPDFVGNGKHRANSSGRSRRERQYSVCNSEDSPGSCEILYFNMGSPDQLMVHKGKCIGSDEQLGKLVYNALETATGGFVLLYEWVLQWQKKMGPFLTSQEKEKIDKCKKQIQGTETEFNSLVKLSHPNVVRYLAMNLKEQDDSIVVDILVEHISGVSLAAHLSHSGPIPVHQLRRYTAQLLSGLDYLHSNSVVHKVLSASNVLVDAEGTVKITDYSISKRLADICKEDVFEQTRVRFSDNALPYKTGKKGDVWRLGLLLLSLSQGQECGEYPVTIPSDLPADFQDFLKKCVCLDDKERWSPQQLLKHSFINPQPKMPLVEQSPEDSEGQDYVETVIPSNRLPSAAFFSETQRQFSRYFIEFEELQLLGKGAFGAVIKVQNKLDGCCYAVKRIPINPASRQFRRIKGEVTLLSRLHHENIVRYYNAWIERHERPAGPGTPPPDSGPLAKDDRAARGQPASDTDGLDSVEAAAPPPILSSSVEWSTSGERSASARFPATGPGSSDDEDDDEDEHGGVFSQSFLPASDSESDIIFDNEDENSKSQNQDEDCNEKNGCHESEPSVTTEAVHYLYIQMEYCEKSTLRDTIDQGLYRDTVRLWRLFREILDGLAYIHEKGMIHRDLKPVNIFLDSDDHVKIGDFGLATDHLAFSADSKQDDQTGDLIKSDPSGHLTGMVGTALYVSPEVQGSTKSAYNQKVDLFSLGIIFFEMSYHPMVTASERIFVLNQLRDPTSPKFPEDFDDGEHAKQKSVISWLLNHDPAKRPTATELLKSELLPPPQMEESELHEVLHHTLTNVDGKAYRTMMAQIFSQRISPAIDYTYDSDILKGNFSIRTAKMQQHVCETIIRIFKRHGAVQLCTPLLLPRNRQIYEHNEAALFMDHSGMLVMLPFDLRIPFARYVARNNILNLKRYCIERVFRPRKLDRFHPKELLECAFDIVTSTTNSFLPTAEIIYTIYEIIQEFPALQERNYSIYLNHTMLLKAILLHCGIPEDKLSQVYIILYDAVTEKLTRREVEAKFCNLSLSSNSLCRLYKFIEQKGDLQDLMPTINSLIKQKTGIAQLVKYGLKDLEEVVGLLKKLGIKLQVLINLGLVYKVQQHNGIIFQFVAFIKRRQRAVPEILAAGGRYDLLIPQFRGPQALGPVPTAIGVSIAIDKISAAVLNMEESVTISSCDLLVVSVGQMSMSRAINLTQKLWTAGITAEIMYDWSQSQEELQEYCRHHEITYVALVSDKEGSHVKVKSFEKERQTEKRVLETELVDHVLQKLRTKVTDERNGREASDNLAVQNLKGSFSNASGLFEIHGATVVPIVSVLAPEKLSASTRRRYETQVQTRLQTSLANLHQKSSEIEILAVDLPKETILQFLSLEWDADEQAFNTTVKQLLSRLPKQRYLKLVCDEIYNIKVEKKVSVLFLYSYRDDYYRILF
Sequence of GCN2 kinase (Q9P2K8 whole entry): as above

`O=C1CCN(c2cc(-c3cnn4ccc(C(F)(F)F)nc34)ncn2)CCN1` [III-3, 1-[6-[5-(Trifluoromethyl)pyrazolo[1,5-a]pyrimidin-3-yl]pyrimidin-4-yl]-1,4-diazepan-5-one] had a Ki on GCN2 kinase (setting [2]) of 0.01 to 1 µM. The IC50 in test [1] (setting [3]) was greater than 5 µM.
On the same counts, the results for `CS(=O)(=O)NC[C@@H]1CN(c2cc(-c3cnn4ccc(C(F)F)nc34)ncn2)CCO1` [III-4, N-[[(2S)-4-[6-[5-(Difluoromethyl)pyrazolo[1,5-a]pyrimidin-3-yl]pyrimidin-4-yl]morpholin-2-yl]methyl]methanesulfonamide] are less than 0.01 µM and less than 0.5 µM.
On the same counts, the results for `CS(=O)(=O)NC[C@H]1CN(c2cc(-c3cnn4cc(F)c(C(F)F)nc34)ncn2)CCO1` [III-5, N-[[(2R)-4-[6-[5-(Difluoromethyl)-6-fluoro-pyrazolo[1,5-a]pyrimidin-3-yl]pyrimidin-4-yl]morpholin-2-yl]methyl]methanesulfonamide] are 0.01 to 1 µM and greater than 5 µM.
At GCN2 kinase (setting [2]), `CS(=O)(=O)NC[C@@H]1CN(c2cc(-c3cnn4ccc(C(F)F)nc34)ccn2)CCO1` [III-6, N-[[(2S)-4-[4-[5-(Difluoromethyl)pyrazolo[1,5-a]pyrimidin-3-yl]-2-pyridyl]morpholin-2-yl]methyl]methanesulfonamide] had a Ki of less than 0.01 µM. For the same molecule, in test [1] (setting [3]), the IC50 lay in the range of 0.5 to 5 µM.
Regarding `CC1CN(c2cc(-c3cnn4ccc(C(F)F)nc34)ccn2)CC(CNS(C)(=O)=O)C1(F)F` (centres unmarked) [III-7, N-[[1-[4-[5-(Difluoromethyl)pyrazolo[1,5-a]pyrimidin-3-yl]-2-pyridyl]-4,4-difluoro-5-methyl-3-piperidyl]methyl]methanesulfonamide], the Ki at GCN2 kinase (setting [2]) is less than 0.01 µM. Moreover, in test [1] (setting [3]), the IC50 is 0.5 to 5 µM.
On the same counts, the results for `CS(=O)(=O)NC[C@@H]1CN(c2cc(-c3cnn4cc(F)c(C(F)F)nc34)ncn2)CCO1` [III-10, N-[[(2S)-4-[6-[5-(Difluoromethyl)-6-fluoro-pyrazolo[1,5-a]pyrimidin-3-yl]pyrimidin-4-yl]morpholin-2-yl]methyl]methanesulfonamide] are less than 0.01 µM and less than 0.5 µM.
The like results for `C[C@H]1CN(c2cc(-c3cnn4cc(F)c(C(F)F)nc34)ncn2)C[C@@H](CNS(C)(=O)=O)C1(F)F` [III-11, N-[[(3S,5S)-1-[6-[5-(Difluoromethyl)-6-fluoro-pyrazolo[1,5-a]pyrimidin-3-yl]pyrimidin-4-yl]-4,4-difluoro-5-methyl-3-piperidyl]methyl]methanesulfonamide] were, in that order, less than 0.01 µM and less than 0.5 µM.
The molecule `C[C@H]1CN(c2cc(-c3cnn4ccc(C(F)F)nc34)ncn2)C[C@@H](CNS(C)(=O)=O)C1(F)F` [III-12, N-[[(3S,5S)-1-[6-[5-(Difluoromethyl)pyrazolo[1,5-a]pyrimidin-3-yl]pyrimidin-4-yl]-4,4-difluoro-5-methyl-3-piperidyl]methyl]methanesulfonamide] displayed a Ki at GCN2 kinase (setting [2]) of less than 0.01 µM. In addition, the IC50 in test [1] (setting [3]) was less than 0.5 µM.
On the same counts, the results for `O=C1CCCC2CN(c3cc(-c4cnn5cccnc45)ccn3)CCN12` (centres unmarked) [III-16, 2-(4-(pyrazolo[1,5-a]pyrimidin-3-yl)pyridin-2-yl)octahydro-6H-pyrido[1,2-a]pyrazin-6-one] are greater than 1 µM and greater than 5 µM.
In turn, `CC(=O)N1CCN(c2cccc(-c3cnc4cnccn34)n2)CC1` [IV-2, 1-(4-(6-(Imidazo[1,2-a]pyrazin-3-yl)pyridin-2-yl)piperazin-1-yl)ethan-1-one] showed a Ki at GCN2 kinase (setting [4]) of 0.1 to 1 µM. The molecule also gave an IC50 in test [1] (setting [5]) greater than 5 µM.
For `FC(F)(F)c1cn2c(-c3nccc(N4CCOC(c5cn[nH]c5)C4)n3)cnc2cn1` (centres unmarked) [IV-3, 2-(1H-Pyrazol-4-yl)-4-(2-(6-(trifluoromethyl)imidazo[1,2-a]pyrazin-3-yl)pyrimidin-4-yl)morpholine], the Ki on GCN2 kinase (setting [4]) was less than 0.01 µM. This molecule gave an IC50 in test [1] (setting [5]) of less than 0.5 µM.
`c1cc(N2CCOC(c3cn[nH]c3)C2)nc(-c2cnc3cnc(C4CC4)cn23)n1` (centres unmarked) [IV-4, 4-(2-(6-Cyclopropylimidazo[1,2-a]pyrazin-3-yl)pyrimidin-4-yl)-2-(1H-pyrazol-4-yl)morpholine]: at GCN2 kinase (setting [4]), the Ki is less than 0.01 µM. Also, in test [1] (setting [5]), the IC50 fell in the range of 0.5 to 5 µM.
For the molecule `CC1CN(c2ccnc(-c3cnc4cnc(Cl)cn34)n2)CC(CNS(C)(=O)=O)C1(F)F` (centres unmarked) [IV-5, N-((1-(2-(6-Chloroimidazo[1,2-a]pyrazin-3-yl)pyrimidin-4-yl)-4,4-difluoro-5-methylpiperidin-3-yl)methyl)methanesulfonamide], the Ki at GCN2 kinase (setting [4]) was 0.01 to 0.1 µM. Also, the IC50 in test [1] (setting [5]) lay within 0.5 to 5 µM.
Regarding `Clc1cn2c(-c3nccc(N4CCOC(c5cn[nH]c5)C4)n3)cnc2cn1` (centres unmarked) [IV-6, 4-(2-(6-Chloroimidazo[1,2-a]pyrazin-3-yl)pyrimidin-4-yl)-2-(1H-pyrazol-4-yl)morpholine], at GCN2 kinase (setting [4]), the Ki is less than 0.01 µM. Moreover, the IC50 in test [1] (setting [5]) is less than 0.5 µM.
`CC1CN(c2ccnc(-c3cnc4cnc(C(F)(F)F)cn34)n2)CC(c2cn[nH]c2)O1` (centres unmarked) [IV-10, 2-Methyl-6-(1H-pyrazol-4-yl)-4-(2-(6-(trifluoromethyl)imidazo[1,2-a]pyrazin-3-yl)pyrimidin-4-yl)morpholine] had a Ki at GCN2 kinase (setting [4]) of less than 0.01 µM. Also, the IC50 in test [1] (setting [5]) was less than 0.5 µM.
On the same counts, the results for `C[C@H]1CN(c2ccnc(-c3cnc4cnc(C(F)(F)F)cn34)n2)C[C@@H](CNS(C)(=O)=O)C1(F)F` [IV-17, N-(((3S,5S)-4,4-Difluoro-5-methyl-1-(2-(6-(trifluoromethyl)imidazo[1,2-a]pyrazin-3-yl)pyrimidin-4-yl)piperidin-3-yl)methyl)methanesulfonamide] are 0.1 to 1 µM and greater than 5 µM.
As for `N#Cc1cn2c(-c3nccc(N4CCOC(c5cn[nH]c5)C4)n3)cnc2cn1` (centres unmarked) [IV-18, 3-(4-(2-(1H-Pyrazol-4-yl)morpholino)pyrimidin-2-yl)imidazo[1,2-a]pyrazine-6-carbonitrile], at GCN2 kinase (setting [4]), the Ki was less than 0.01 µM. In test [1] (setting [5]), this molecule showed an IC50 of 0.5 to 5 µM.
`Brc1cn2c(-c3nccc(N4CCOC(c5cn[nH]c5)C4)n3)cnc2cn1` (centres unmarked) [IV-19, 4-(2-(6-Bromoimidazo[1,2-a]pyrazin-3-yl)pyrimidin-4-yl)-2-(1H-pyrazol-4-yl)morpholine] had a Ki at GCN2 kinase (setting [4]) of less than 0.01 µM. The IC50 in test [1] (setting [5]) is less than 0.5 µM.
On the same counts, the results for `Cc1cn2c(-c3nccc(N4CCOC(c5cn[nH]c5)C4)n3)cnc2cn1` (centres unmarked) [IV-20, 4-(2-(6-Methylimidazo[1,2-a]pyrazin-3-yl)pyrimidin-4-yl)-2-(1H-pyrazol-4-yl)morpholine] are 0.01 to 0.1 µM and 0.5 to 5 µM.
On the same counts, the results for `C[C@H]1CN(c2ccnc(-c3cnc4cnc(C(F)F)cn34)n2)C[C@@H](CNS(C)(=O)=O)C1(F)F` [IV-21, N-(((3S,5S)-1-(2-(6-(Difluoromethyl)imidazo[1,2-a]pyrazin-3-yl)pyrimidin-4-yl)-4,4-difluoro-5-methylpiperidin-3-yl)methyl)methanesulfonamide] are 0.1 to 1 µM and greater than 5 µM.
At GCN2 kinase (setting [4]), `CC(=O)N1CCN(c2ccnc(-c3cnc4cnc(C(F)F)cn34)n2)CC1` [IV-22, 1-(4-(2-(6-(Difluoromethyl)imidazo[1,2-a]pyrazin-3-yl)pyrimidin-4-yl)piperazin-1-yl)ethan-1-one] displayed a Ki of 0.1 to 1 µM. Also, in test [1] (setting [5]), the IC50 is greater than 5 µM.
On the same counts, the results for `CS(=O)(=O)NC[C@@H]1CN(c2ccnc(-c3cnc4cnc(C(F)F)cn34)n2)CCO1` [IV-23, (S)—N-((4-(2-(6-(Difluoromethyl)imidazo[1,2-a]pyrazin-3-yl)pyrimidin-4-yl)morpholin-2-yl)methyl)methanesulfonamide] are 0.1 to 1 µM and greater than 5 µM.
On the same counts, the results for `CC(=O)N1CCN(c2ccnc(-c3cnc4cnc(C(F)(F)F)cn34)n2)CC1` [IV-24, 1-(4-(2-(6-(Trifluoromethyl)imidazo[1,2-a]pyrazin-3-yl)pyrimidin-4-yl)piperazin-1-yl)ethan-1-one] are 0.1 to 1 µM and greater than 5 µM.
On to `COc1cn2c(-c3nccc(N4CCN(C(C)=O)CC4)n3)cnc2cn1` [IV-25, 1-(4-(2-(6-Methoxyimidazo[1,2-a]pyrazin-3-yl)pyrimidin-4-yl)piperazin-1-yl)ethan-1-one], for which the Ki on GCN2 kinase (setting [4]) is 0.1 to 1 µM. For the same molecule, the IC50 in test [1] (setting [5]) was greater than 5 µM.
On the same counts, the results for `CC(=O)N1CCN(c2ccnc(-c3cnc4cnc(CO)cn34)n2)CC1` [IV-26, 1-(4-(2-(6-(Hydroxymethyl)imidazo[1,2-a]pyrazin-3-yl)pyrimidin-4-yl)piperazin-1-yl)ethan-1-one] are 0.1 to 1 µM and greater than 5 µM.
The like results for `CS(=O)(=O)NCC1CCN(c2ccnc(-c3cnc4cnc(Br)cn34)n2)C1` (centres unmarked) [IV-27, N-((1-(2-(6-Bromoimidazo[1,2-a]pyrazin-3-yl)pyrimidin-4-yl)pyrrolidin-3-yl)methyl)methanesulfonamide] were, in that order, 0.01 to 0.1 µM and 0.5 to 5 µM.
On the same counts, the results for `FC(F)c1cn2c(-c3nccc(N4CCOC(c5cn[nH]c5)C4)n3)cnc2cn1` (centres unmarked) [IV-28, 4-(2-(6-(Difluoromethyl)imidazo[1,2-a]pyrazin-3-yl)pyrimidin-4-yl)-2-(1H-pyrazol-4-yl)morpholine] are 0.01 to 0.1 µM and 0.5 to 5 µM.
Consider `CS(=O)(=O)NC[C@H]1CCCN(c2ccnc(-c3cnc4cnc(C(F)F)cn34)n2)C1` [IV-29, (S)—N-((1-(2-(6-(Difluoromethyl)imidazo[1,2-a]pyrazin-3-yl)pyrimidin-4-yl)piperidin-3-yl)methyl)methanesulfonamide], for which the Ki at GCN2 kinase (setting [4]) lay in the range of 0.1 to 1 µM. This molecule gave an IC50 in test [1] (setting [5]) greater than 5 µM.

By IC50 is commonly meant the point on the concentration scale where inhibition reaches its midpoint.

(Values after patent US10988477B2 (Merck Patent GmbH, priority 2018, dated 2021).)
